Assay results reported in the supplement of paper PMC10307832.

Assays:
Test in all cases: relative viability (nuclei count vs DMSO), 5 days (fraction); higher = more cells survive
NCI-H2085 = details: first compound 20 µM
Outline: (§1)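 Medians of duplicate plates are given as relative viability. That measure is the nuclei count in treated wells divided by the count in vehicle wells. Counts were taken on 4× images of lung cancer cell lines in 1536-well plates, 5 days after pin-tool dosing the day after seeding with one drug alone or a fixed anchor-drug dose plus five library-drug doses (not always all listed) in √10 steps.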

NCI-H2087 = system: NCI-H2087
Outline: as §1

NCI-H23 = system: NCI-H23
Outline: as §1

NCI-H3122 = system: NCI-H3122
Outline: as §1

NCI-H322M = system: NCI-H322M
Outline: as §1

NCI-H358 = system: NCI-H358
Outline: as §1

NCI-H460 = system: NCI-H460
Outline: as §1

NCI-H522 = system: NCI-H522
Outline: as §1

NCI-H596 = system: NCI-H596
Outline: as §1

NCI-H650 = system: NCI-H650
Outline: as §1

PC-3 [JPC-3] = system: PC-3 [JPC-3]
Outline: as §1

SK-LU-1 = system: SK-LU-1
Outline: as §1

With `Cc1csc(=NC2CCCCC2)n1/N=C/c1ccc(O)c(O)c1O` [MIM1] + Nc1nc2[nH]cc(CCc3ccc(C(=O)N[C@@H](CCC(=O)O)C(=O)O)cc3)c2c(=O)[nH]1 [Pemetrexed] (partner 0.2 µM) the relative viability (NCI-H2085) was 0.833, the relative viability (NCI-H2087; first compound 0.2 µM) was 0.593 and the relative viability (NCI-H2087; first compound 0.6325 µM) was 0.724. For the same compound, the relative viability (NCI-H2087; first compound 2 µM) was 0.729, the relative viability (NCI-H2087; first compound 6.325 µM) was 0.601 and the relative viability (NCI-H2087; first compound 20 µM) was 0.644. It also gave a relative viability (NCI-H23; first compound 0.2 µM) of 0.667, a relative viability (NCI-H23; first compound 0.6325 µM) of 0.469 and a relative viability (NCI-H23; first compound 2 µM) of 0.717. For the same compound, the relative viability (NCI-H23; first compound 6.325 µM) was 0.5, the relative viability (NCI-H23; first compound 20 µM) was 0.204 and the relative viability (NCI-H3122; first compound 0.2 µM) was 0.195. The relative viability (NCI-H3122; first compound 0.6325 µM) was 0.194, the relative viability (NCI-H3122; first compound 2 µM) was 0.219 and the relative viability (NCI-H3122; first compound 6.325 µM) was 0.148. It also gave a relative viability (NCI-H3122; first compound 20 µM) of 0.245, a relative viability (NCI-H322M; first compound 0.2 µM) of 0.614 and a relative viability (NCI-H322M; first compound 0.6325 µM) of 0.58. The relative viability (NCI-H322M; first compound 2 µM) was 0.558, the relative viability (NCI-H322M; first compound 6.325 µM) was 0.557 and the relative viability (NCI-H322M; first compound 20 µM) was 0.543. It also gave a relative viability (NCI-H358; first compound 0.2 µM) of 0.181, a relative viability (NCI-H358; first compound 0.6325 µM) of 0.17 and a relative viability (NCI-H358; first compound 2 µM) of 0.182. The relative viability (NCI-H358; first compound 6.325 µM) was 0.152, the relative viability (NCI-H358; first compound 20 µM) was 0.144 and the relative viability (NCI-H460; first compound 0.2 µM) was 0.0717. The relative viability (NCI-H460; first compound 0.6325 µM) was 0.0675, the relative viability (NCI-H460; first compound 2 µM) was 0.0683 and the relative viability (NCI-H460; first compound 6.325 µM) was 0.0681. It also gave a relative viability (NCI-H460; first compound 20 µM) of 0.0657, a relative viability (NCI-H522; first compound 0.2 µM) of 1.09 and a relative viability (NCI-H522; first compound 0.6325 µM) of 1.31. It also gave a relative viability (NCI-H522; first compound 2 µM) of 0.951, a relative viability (NCI-H522; first compound 6.325 µM) of 1.01 and a relative viability (NCI-H522; first compound 20 µM) of 0.481. The relative viability (NCI-H596; first compound 0.2 µM) was 0.608, the relative viability (NCI-H596; first compound 0.6325 µM) was 0.537 and the relative viability (NCI-H596; first compound 2 µM) was 0.536. The relative viability (NCI-H596; first compound 6.325 µM) was 0.512, the relative viability (NCI-H596; first compound 20 µM) was 0.471 and the relative viability (NCI-H650; first compound 0.2 µM) was 1.07. For the same compound, the relative viability (NCI-H650; first compound 0.6325 µM) was 1, the relative viability (NCI-H650; first compound 2 µM) was 0.934 and the relative viability (NCI-H650; first compound 6.325 µM) was 0.89. It also gave a relative viability (NCI-H650; first compound 20 µM) of 0.282, a relative viability (PC-3 [JPC-3]; first compound 0.2 µM) of 1.18 and a relative viability (PC-3 [JPC-3]; first compound 0.6325 µM) of 1.04. The relative viability (PC-3 [JPC-3]; first compound 2 µM) was 1.14, the relative viability (PC-3 [JPC-3]; first compound 6.325 µM) was 0.948 and the relative viability (PC-3 [JPC-3]; first compound 20 µM) was 0.485. The relative viability (SK-LU-1; first compound 0.2 µM) was 0.995, the relative viability (SK-LU-1; first compound 0.6325 µM) was 1.09 and the relative viability (SK-LU-1; first compound 2 µM) was 0.972. It also gave a relative viability (SK-LU-1; first compound 6.325 µM) of 0.892 and a relative viability (SK-LU-1; first compound 20 µM) of 0.694.
